Data taken from patent EP2272817A1, “PAI-1 INHIBITOR” (Institute of Medicinal Molecular Design, Inc., priority 2008, dated 2009).
Read-outs that look alike come from different tables or passages of the source.

Assays:
recombinant human PAI-1 [1] = target: T1, recombinant human PAI-1 (Homo sapiens, UniProt P05121); experiment: biochemical
Method: To this solution, 6 µl of 80 nM recombinant human PAI-1 (Molecular Innovations, Inc.) solution prepared with Tris buffer was added, and the plate was incubated for 5 minutes at room temperature. Furthermore, 30 µl of 800 IU/ml two-chain tPA (Activity Standard; American diagnostica, inc.) prepared with Tris buffer was added, and the mixed solution was incubated for 15 minutes at room temperature. Then, 30 µl of 400 µM fluorogenic substrate (Pyr-Gly-Arg-MCA; Peptide Institute, Inc.) for tPA prepared with Tris buffer was added and reacted for 30 minutes at room temperature.
50 mM Tris, 150 mM NaCl, 10 µg/ml BSA, 0.01 % Tween80 (SIGMA-ALDRICH Corporation)

recombinant human PAI-1 [2] = target: T1, recombinant human PAI-1; experiment: Test Example 2: Human PAI-1 Inhibitory Activity (pH 7.4 HEPES buffer, 10 minutes incubation with two-chain tPA); type: biochemical; design: purchased Molecular Innovations, Inc; details: read-out: Inhibition Rate of PAI-1 Activity (%)
Method: 0.1 M HEPES, 0.1 M NaCl. 1 mM EDTA. 0.1 % Polyethylene glycol 8,000 (Hampton Research Corporation),
2 mM Dimethyldecylphoshine oxide [Apo-10] (Fluka Corporation)

[3] = read-out: Inhibition Rate of PAI Activity (%)
[4] = read-out: Inhibition Rate of PAI-1 Activity (%)

T1 sequence (P05121 24-402): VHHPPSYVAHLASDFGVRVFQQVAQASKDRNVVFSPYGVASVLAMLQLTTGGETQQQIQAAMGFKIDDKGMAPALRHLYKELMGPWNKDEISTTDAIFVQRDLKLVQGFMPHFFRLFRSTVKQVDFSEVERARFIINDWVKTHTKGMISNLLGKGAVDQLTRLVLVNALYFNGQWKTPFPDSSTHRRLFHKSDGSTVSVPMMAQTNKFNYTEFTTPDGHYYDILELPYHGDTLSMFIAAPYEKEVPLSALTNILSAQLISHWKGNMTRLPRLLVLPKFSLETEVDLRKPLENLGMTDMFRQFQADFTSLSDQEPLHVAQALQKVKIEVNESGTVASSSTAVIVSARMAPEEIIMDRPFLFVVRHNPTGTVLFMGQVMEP

inhibition at 5 µM (recombinant human PAI-1 [1]; [4]) [%]	inhibition at 10 µM (recombinant human PAI-1 [1]; [4]) [%]	inhibition at 25 µM (recombinant human PAI-1 [1]; [4]) [%]	SMILES	other results
28	62	95	Cc1cc(-c2ccc(OC(F)(F)F)cc2)cc(CCC(=O)O)c1OCc1ccc(C(C)(C)C)cc1 [Compound 84]	–
59	83	96	CCCOc1ccc(-c2ccc(OC(F)(F)F)cc2)cc1N(CCCc1ccccc1)C(=O)C(=O)O [Compound 234]	–
–	32	82	CC(C)(C)c1ccc(CN(C(=O)C(=O)O)c2ccc(Oc3ccc(OC(F)(F)F)cc3)cc2)cc1 [Compound 132]	–
19	36	71	O=C(O)C(=O)N(Cc1ccccc1)c1c(Cl)cc(-c2ccc(OC(F)(F)F)cc2)cc1Cl [Compound 180]	–
60	89	96	CC(C)Oc1ccc(N(CCCCc2ccccc2)C(=O)C(=O)O)cc1-c1ccc(OC(F)(F)F)cc1 [Compound 248]	–
31	66	99	CC(C)(C)c1ccc(Oc2ccc(Oc3ccc(OC(F)(F)F)cc3)cc2/C=C/C(=O)O)cc1 [Compound 99]	–
75	93	99	CC(C)(C)c1ccc(Oc2cc(-c3ccc(OC(F)(F)F)cc3)ccc2OC(F)C(=O)O)cc1 (stereo not drawn) [Compound 119]	–
37	75	87	CCCCc1ccc(CN(C(=O)C(=O)O)c2ccc(-c3ccc(OC(F)(F)F)cc3)cc2)cc1 [Compound 167]	–
52	86	95	CC(OCC(=O)O)c1cc(-c2ccc(OC(F)(F)F)cc2)ccc1OCc1ccc(C(C)(C)C)cc1 (stereo not drawn) [Compound 108]	–

Continued, compound first:

SMILES	inhibition at 5 µM (recombinant human PAI-1 [1]; [4]) [%]	inhibition at 10 µM (recombinant human PAI-1 [1]; [4]) [%]	inhibition at 25 µM (recombinant human PAI-1 [1]; [4]) [%]	other results
Cc1cc(C)cc(COc2ccc(-c3ccc(OC(F)(F)F)cc3)cc2CC(=O)O)c1 [Compound 11]	–	–	–	inhibition at 5 µM (recombinant human PAI-1 [1]; [3]): 41%; inhibition at 10 µM (recombinant human PAI-1 [1]; [3]): 84%; inhibition at 25 µM (recombinant human PAI-1 [1]; [3]): 99%
CC(C)(C)c1ccc(-c2ccc(N(Cc3ccc(OC(F)(F)F)cc3)C(=O)C(=O)O)cc2)cc1 [Compound 162]	30	74	> 99	–
CC(C)(C)c1ccc(-c2ccc(N(Cc3ccc(Cl)cc3)C(=O)C(=O)O)cc2)cc1 [Compound 204]	58	85	> 99	–
COc1ccc(-c2ccc(OC(F)(F)F)cc2)cc1N(Cc1ccc(C(C)(C)C)cc1)C(=O)C(=O)O [Compound 182]	56	85	89	–
CC(C)(C)c1ccc(CN(C(=O)C(=O)O)c2ccccc2-c2ccc(OC(F)(F)F)cc2)cc1 [Compound 148]	17	55	98	–
CC(C)(C)c1ccc(-c2ccc(N(Cc3ccccc3)C(=O)C(=O)O)cc2)cc1 [Compound 156]	10	25	67	–
Cc1ccc(N(Cc2ccc(C(C)(C)C)cc2)C(=O)C(=O)O)cc1Oc1ccc(OC(F)(F)F)cc1 [Compound 187]	75	92	88	–
CCCCCOc1ccc(-c2ccc(OC(F)(F)F)cc2)cc1N(Cc1ccccc1)C(=O)C(=O)O [Compound 195]	77	94	93	–
CC(C)(C)c1ccc(CN(C(=O)C(=O)O)c2ccc(N3CCCCC3)c(-c3ccc(OC(F)(F)F)cc3)c2)cc1 [Compound 217]	86	84	–	–
CC(C)(C)c1ccc(CN(C(=O)C(=O)O)c2cc(-c3ccccc3)cc(C(F)(F)F)c2)cc1 [Compound 140]	6	31	77	–
Cc1cc(-c2ccc(OC(F)(F)F)cc2)cc(/C=C/C(=O)O)c1OCc1ccc(C(C)(C)C)cc1 [Compound 83]	27	46	56	–
CC(C)(C)c1ccc(CN(C(=O)C(=O)O)c2ccccc2Oc2ccc(OC(F)(F)F)cc2)cc1 [Compound 153]	20	54	93	–
CC(C)(C)c1ccc(COc2cc(-c3ccc(OC(F)(F)F)cc3)cc(O)c2OCC(=O)O)cc1 [Compound 546]	61	–	–	inhibition at 0.5 µM (recombinant human PAI-1 [1]; [4]): 4%; inhibition at 1 µM (recombinant human PAI-1 [1]; [4]): 14%
O=C(O)CCc1cc(-c2ccc(OC(F)(F)F)cc2)ccc1OCc1ccccc1C(F)(F)F [Compound 21]	–	–	–	inhibition at 10 µM (recombinant human PAI-1 [1]; [3]): 11%; inhibition at 25 µM (recombinant human PAI-1 [1]; [3]): 70%
CC(C)(C)c1ccc(-c2ccc(N(Cc3ccc(C(F)(F)F)cc3)C(=O)C(=O)O)cc2)cc1 [Compound 205]	50	80	98	–
O=C(O)CCc1cc(-c2ccc(OC(F)(F)F)cc2)ccc1OCc1ccc(-c2ccccc2)cc1 [Compound 29]	–	–	–	inhibition at 5 µM (recombinant human PAI-1 [1]; [3]): 21%; inhibition at 10 µM (recombinant human PAI-1 [1]; [3]): 56%; inhibition at 25 µM (recombinant human PAI-1 [1]; [3]): 88%
CC(C)(C)c1ccc(N(C(=O)C(=O)O)c2ccc(-c3ccc(OC(F)(F)F)cc3)cc2)cc1 [Compound 128]	58	89	–	–
CC(C)(C)c1ccc(COc2ccc(-c3ccc(OC(F)(F)F)cc3)cc2OCCCC(=O)O)cc1 [Compound 109]	24	50	96	–
O=C(O)C(=O)N(CCCCc1ccccc1)c1ccc(N2CCCCC2)c(-c2ccc(OC(F)(F)F)cc2)c1 [Compound 247]	93	99	–	–

SMILES	inhibition at 5 µM (recombinant human PAI-1 [1]; [4]) [%]	inhibition at 10 µM (recombinant human PAI-1 [1]; [4]) [%]	inhibition at 25 µM (recombinant human PAI-1 [1]; [4]) [%]	other results
CC(C)(C)c1ccc(CN(C(=O)C(=O)O)c2ccc(N3CCCCC3=O)c(-c3ccc(OC(F)(F)F)cc3)c2)cc1 [Compound 219]	33	58	86	–
CCCCOc1ccc(-c2ccc(OC(F)(F)F)cc2)cc1N(CCCc1ccccc1)C(=O)C(=O)O [Compound 235]	66	89	93	–
CC(C)(C)c1ccc(CN(C(=O)C(=O)O)c2ccc(OCc3ccc(OC(F)(F)F)cc3)c(OCc3ccc(OC(F)(F)F)cc3)c2)cc1 [Compound 622]	44	72	88	–
CC(C)(C)c1ccc(CN(C(=O)C(=O)O)c2ccc(Sc3ccc(OC(F)(F)F)cc3)cc2)cc1 [Compound 621]	67	95	91	–
CN(C(=O)C(=O)O)c1ccc(OCc2ccc(OC(F)(F)F)cc2)c(OCc2ccc(OC(F)(F)F)cc2)c1 [Compound 623]	22	41	87	–
O=C(O)CCc1cc(OCc2ccc(OC(F)(F)F)cc2)ccc1OCc1ccc(OC(F)(F)F)cc1 [Compound 404]	14	31	84	–
O=C(O)CCc1cc(-c2ccc(OC(F)(F)F)cc2)ccc1OCCCCCc1ccccc1 [Compound 104]	47	77	96	–
CC(C)(C)c1ccc(CN(C(=O)C(=O)O)c2ccc(C(F)(F)F)cc2-c2ccc(OC(F)(F)F)cc2)cc1 [Compound 169]	59	91	84	–
CCCCCOc1ccc(-c2ccc(OC(F)(F)F)cc2)cc1N(CCCCCc1ccccc1)C(=O)C(=O)O [Compound 242]	88	94	–	–
O=C(O)C(=O)N(Cc1ccc(Cl)cc1Cl)c1ccc(-c2ccc(OC(F)(F)F)cc2)cc1 [Compound 144]	3	22	76	–
CC(C)(C)c1ccc(COc2cc(-c3ccc(OC(F)(F)F)cc3)ccc2OCC(=O)O)cc1 [Compound 304]	–	–	–	inhibition at 0.1 µM (recombinant human PAI-1 [2]): 3%; inhibition at 0.3 µM (recombinant human PAI-1 [2]): 1%; inhibition at 1 µM (recombinant human PAI-1 [2]): 23%; inhibition at 3 µM (recombinant human PAI-1 [2]): 99%
O=C(O)C(=O)N(CCCCc1ccccc1)c1cc(-c2ccc(OC(F)(F)F)cc2)ccc1OC1CCCC1 [Compound 658]	–	–	–	inhibition at 0.1 µM (recombinant human PAI-1 [2]): 9%; inhibition at 0.3 µM (recombinant human PAI-1 [2]): 20%; inhibition at 1 µM (recombinant human PAI-1 [2]): 97%; inhibition at 3 µM (recombinant human PAI-1 [2]): > 99%
CC(C)(C)c1ccc(Oc2ccc(-c3cccc(OC(F)(F)F)c3)cc2OCC(=O)O)cc1 [Compound 329]	–	–	–	inhibition at 0.1 µM (recombinant human PAI-1 [2]): 6%; inhibition at 0.3 µM (recombinant human PAI-1 [2]): 11%; inhibition at 1 µM (recombinant human PAI-1 [2]): 28%; inhibition at 3 µM (recombinant human PAI-1 [2]): 98%
CCCCOc1ccc(-c2ccc(OCC(=O)O)c(Oc3ccc(C(C)(C)C)cc3)c2)cc1 [Compound 468]	–	–	–	inhibition at 0.1 µM (recombinant human PAI-1 [2]): 1%; inhibition at 0.3 µM (recombinant human PAI-1 [2]): 5%; inhibition at 1 µM (recombinant human PAI-1 [2]): 86%; inhibition at 3 µM (recombinant human PAI-1 [2]): 97%
CCCCCOc1ccc(Oc2ccc(OC(F)(F)F)cc2)cc1N(CCCCc1ccccc1)C(=O)C(=O)O [Compound 363]	–	–	–	inhibition at 0.1 µM (recombinant human PAI-1 [2]): 2%; inhibition at 0.3 µM (recombinant human PAI-1 [2]): 4%; inhibition at 1 µM (recombinant human PAI-1 [2]): 72%; inhibition at 3 µM (recombinant human PAI-1 [2]): > 99%
CCCCOc1ccc(Oc2cc(-c3ccc(OC(F)(F)F)cc3)ccc2OCC(=O)O)cc1 [Compound 523]	–	–	–	inhibition at 0.1 µM (recombinant human PAI-1 [2]): 11%; inhibition at 0.3 µM (recombinant human PAI-1 [2]): 15%; inhibition at 1 µM (recombinant human PAI-1 [2]): 78%; inhibition at 3 µM (recombinant human PAI-1 [2]): > 99%
CCC(C)(C)c1ccc(Oc2cc(-c3ccc(OC(F)(F)F)cc3)ccc2CCC(=O)O)cc1 [Compound 475]	–	–	–	inhibition at 0.1 µM (recombinant human PAI-1 [2]): 4%; inhibition at 0.3 µM (recombinant human PAI-1 [2]): 27%; inhibition at 1 µM (recombinant human PAI-1 [2]): 94%; inhibition at 3 µM (recombinant human PAI-1 [2]): > 99%
CCCCC(Oc1cc(-c2ccc(OC(F)(F)F)cc2)ccc1OCCCCc1ccccc1)C(=O)O (stereo not drawn) [Compound 306]	–	–	–	inhibition at 0.1 µM (recombinant human PAI-1 [2]): 0%; inhibition at 0.3 µM (recombinant human PAI-1 [2]): 0%; inhibition at 1 µM (recombinant human PAI-1 [2]): 72%; inhibition at 3 µM (recombinant human PAI-1 [2]): 97%
CCCCC(Oc1cc(Oc2ccc(OC(F)(F)F)cc2)ccc1Oc1ccc(C(C)(C)C)cc1)C(=O)O (stereo not drawn) [Compound 312]	–	–	–	inhibition at 0.1 µM (recombinant human PAI-1 [2]): 17%; inhibition at 0.3 µM (recombinant human PAI-1 [2]): 24%; inhibition at 1 µM (recombinant human PAI-1 [2]): 87%; inhibition at 3 µM (recombinant human PAI-1 [2]): 94%
